Measurements reported in patent US5599966A, “Substituted ethanolamine esters” (BYK Nederland BV, priority 1992, dated 1997).
Counter-ions that a name gives are not always drawn.

system: guinea pig trachea; assay: relaxing action on guinea pig trachea contracted beforehand with methacholine (in vitro, organ bath); assay type: cell-based; settings: Cavia porcellus, read-out: -log[EC50 (mol/l)] (converted)
Procedure: For this, the relaxing action on a guinea pig trachea which has been contracted beforehand with a suitable dose of methacholine is measured for the compounds to be investigated. The trachea of male guinea pigs (200-300 g) is removed and divided into individual segments and each segment is suspended in an organ bath with 118.5 mM NaCl, 4.7 mM KCl, 1.2 mM MgSO4, 2.5 mM CaCl2, 1.2 mM KH2 PO4, 25 mM NaHCO3 and 10 mM glucose at 37° C. Oxygen to which 5% of CO2 has been added is passed permanently through the solution. After stabilization, the trachea is contracted with a suitable dose of methacholine. Thereafter, a dose/effect curve is plotted with the test substances in a cumulative manner. The concentration (mol/l) which corresponds to 50% of the maximum effect (EC50) is then determined from this curve. This EC50 is thus a measure of the activity of the compounds according to the invention.
The serial number in the table agrees with the number of the compounds in the examples. The number n indicates the number of investigations.

`Nc1c(Cl)cc(C(O)CNCCOCCOC(=O)Cc2ccccc2)cc1Cl` (stereo not shown) [Compound 106, {2-[2-[2-(4-Amino-3,5-dichlorophenyl)-2-hydroxyethylamino]ethoxy]ethyl}phenylacetate-fumarate] was tested, and the EC50 was 7.94 nM.

same assay, conditions: Cavia porcellus; in vitro relaxation of methacholine-contracted guinea pig trachea segments, cumulative dose/effect curve, 37° C., n = 3 to 6; read-out: -log[EC50 (mol/l)] (converted)

Compared with `Nc1c(Cl)cc(C(O)CNCCCCCCOC(=O)CCc2ccc(O)cc2)cc1Cl` (stereo not shown) [Compound 17, {6-[2-(4-Amino-3,5-dichlorophenyl)-2-hydroxyethylamino]-1-hexyl}[3-(4-hydroxyphenyl)]propionate-hydrochloride], `Nc1c(Cl)cc(C(O)CNCCCCCC(=O)OCCc2ccc(O)cc2)cc1Cl` (stereo not shown) [Compound 37, 2-(4-Hydroxyphenyl)ethyl 6-[2-(4-amino-3,5-dichlorophenyl)-2-hydroxyethylamino]hexanoate] is 10-fold lower in EC50: 20 nM for the first, 2 nM for the second.

Going from `Nc1c(Cl)cc(C(O)CNCCCCCC(=O)OCCc2cccc3ccccc23)cc1Cl` (stereo not shown) [Compound 19, 2-(1-Naphthyl)ethyl 6-[2-(4-amino-3,5-dichlorophenyl)-2-hydroxyethylamino]hexanoate] to `Nc1c(Cl)cc(C(O)CNCCCCCCOC(=O)Cc2cccc3ccccc23)cc1Cl` (stereo not shown) [Compound 34, {6-[2-(4-Amino-3,5-dichlorophenyl)-2-hydroxyethylamino]-1-hexyl}1-naphthylacetate-maleate], the EC50 falls from 6.31 nM to 3.16 nM (2-fold).

Going from `Nc1c(Cl)cc(C(O)CNCCCCCC(=O)OCCc2ccccn2)cc1Cl` (stereo not shown) [Compound 32, 2-(2-Pyridyl)ethyl6-[2-(4-amino-3,5-dichlorophenyl)-2-hydroxyethylamino]hexanoate-hemifumarate] to `Nc1c(Cl)cc(C(O)CNCCCCCC(=O)OCCc2c[nH]c3ccccc23)cc1Cl` (stereo not shown) [Compound 103, 2-(3-Indolyl)ethyl 6-[2-(4-amino-3,5-dichlorophenyl)-2-hydroxyethylamino]hexanoate-hemifumarate], the EC50 falls from 15.8 nM to 3.16 nM (5-fold).

Compared with `O=C(CCCCCNCC(O)c1ccc(O)c(CO)c1)OCCCCc1ccccc1` (stereo not shown) [Compound 64, 4-Phenylbutyl 6-[2-hydroxy-2-(4-hydroxy-3-hydroxymethylphenyl)ethylamino]hexanoate-oxalate], `N#Cc1cc(C(O)CNCCCCCC(=O)OCCc2ccccc2)cc(Cl)c1N` (stereo not shown) [Compound 74, 2-Phenylethyl 6-[2-(4-amino-5-chloro-3-cyanophenyl)-2-hydroxyethylamino]hexanoate-hemifumarate] is 2.5-fold lower in EC50: 10 nM for the first, 3.98 nM for the second.

In the case of `Nc1ccc(C(O)CNCCCCCCOC(=O)Cc2ccccc2Cl)c(Cl)c1Cl` (stereo not shown) [Compound 82, {6-[2-(4-Amino-2,3-dichlorophenyl)-2-hydroxyethylamino]-1-hexyl}2-chlorophenylacetate-hemifumarate], the EC50 is reported as 10 nM.
